What was measured:
STARD1 = target: T1, STARD1 (Homo sapiens, UniProt P49675); assay: Fluorescence polarisation (FP) competition with NBD-cholesterol, STARD1; format: binding; details: single dose, Dose = 10 µM
T1 construct: STARD1(66-284); made in house; host or cells: E. coli BL21(DE3)
T1 sequence (P49675 66-284): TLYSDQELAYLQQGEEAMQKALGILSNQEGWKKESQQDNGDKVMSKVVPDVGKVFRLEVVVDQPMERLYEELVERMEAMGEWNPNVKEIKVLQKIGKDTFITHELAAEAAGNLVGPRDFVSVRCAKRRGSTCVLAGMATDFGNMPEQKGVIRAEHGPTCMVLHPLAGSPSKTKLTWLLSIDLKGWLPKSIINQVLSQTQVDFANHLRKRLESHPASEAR

OSBP = target: T2, OSBP (Homo sapiens, UniProt P22059); assay: Fluorescence polarisation (FP) competition with NBD-cholesterol, OSBP; format: binding; details: single dose; for OSBP (FP) inhibition: Dose = 10 µM
T2 construct: OSBP(377-807); host or cells: E. coli OverExpress C41
T2 sequence (P22059 377-807): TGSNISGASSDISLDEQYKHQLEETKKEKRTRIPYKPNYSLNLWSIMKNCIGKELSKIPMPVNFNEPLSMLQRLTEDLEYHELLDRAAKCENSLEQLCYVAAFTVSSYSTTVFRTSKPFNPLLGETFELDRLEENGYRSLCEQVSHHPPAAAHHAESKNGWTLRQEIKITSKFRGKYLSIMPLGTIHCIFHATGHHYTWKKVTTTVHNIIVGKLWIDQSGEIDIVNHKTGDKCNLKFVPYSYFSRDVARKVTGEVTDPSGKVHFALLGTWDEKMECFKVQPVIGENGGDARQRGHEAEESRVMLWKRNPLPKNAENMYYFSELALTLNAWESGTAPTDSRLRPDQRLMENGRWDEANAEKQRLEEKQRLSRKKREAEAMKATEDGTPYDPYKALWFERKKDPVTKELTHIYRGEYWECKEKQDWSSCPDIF
Text: Protein expression constructs
Human ASTER domains of Aster-A(359-547), -B(364-552) and -C(318-504) were subcloned into a pGEX-6p-2rbs vector, thus introducing the cloning artifact ‘GPLGS’.3 The pGEX-6P-1-GST-OSBP(377- […]
a gift from James H. Hurley (University of California).4 The pHIS_2His6_Thrombin_STARD4(2-205;C75S) plasmid was a gift from Young Jun Im (Chonnam National University).5 STARD5A was a gift from Nicola Burgess-Brown (Addgene plasmid #42392; http://n2t.net/addgene:42392; […]
Protein expression and purification […]
vectors including an N-terminal PreScission-cleavable glutathione S-transferase (GST)-tag were expressed in Escherichia coli (E. coli) OverExpress C41 in Terrific Broth (TB) medium for 16 h at 18 °C after the induction with 0.1 mM isopropyl β-D-1-thiogalactopyranoside (IPTG). Cells were harvested at 3500 × g for 15 minutes and lysed by sonication in buffer containing 50 mM HEPES pH 7.5, 300 mM NaCl, 10 %v/v glycerol, 5 mM dithiothreitol (DTT), 0.1 %v/v Triton X-100 and protease inhibitor mix HP plus (Serva). The lysate was purified by affinity chromatography on a GSTrap FF column (Cytiva) using an ÄKTA Start (Cytiva) in buffer containing 50 mM HEPES pH 7.5, 300 mM NaCl, 10 %v/v glycerol, 5 mM DTT and 0.01 %v/v Triton X-100. The GST-tag was cleaved overnight on the column at 4 °C. The Aster sterol binding domains were further purified by size-exclusion chromatography (SEC) on a HiLoad 16/600 Superdex 75 pg (Cytiva) in buffer containing 20 mM HEPES pH 7.5, 300 mM NaCl, 10 %v/v […]
STARD5(6-213) harboring an N-terminal His6-Tag were expressed in E. coli BL21(DE3) in Luria-Bertani Broth (LB) medium for approximately 16 h at 18 °C after induction with 0.15 mM IPTG. Cells were harvested at 3500 × g for 15 minutes and lysed by sonication in buffer containing 50 mM HEPES pH 7.5, 150 mM NaCl, 5 %v/v glycerol, 5 mM DTT, 0.1 %v/v Triton X -100 and ethylenediaminetetraacetic acid (EDTA)-free protease inhibitor cocktail (Sigma-Aldrich). The cleared lysate was purified by affinity chromatography on a Ni-NTA Superflow Cartridge (Qiagen) using an ÄKTA Start (Cytiva) in buffer containing 50 mM HEPES pH 7.5, 150 mM NaCl, 5 %v/v glycerol, 5 mM DTT. START domains were eluted by using elution buffer containing 50 mM HEPES pH 7.5, 150 mM NaCl, 5 %v/v glycerol, 5 mM DTT and 500 mM imidazole. Proteins were further purified by SEC on a HiLoad 16/600 Superdex 75 pg (Cytiva) in buffer containing 20 mM HEPES pH 7.5, 150 mM NaCl, 5 %v/v glycerol and 2 mM DTT.
The ORP domain of human OSBP(377-807) in the pGEX-6p-1 vector with an N-terminal PreScission-cleavable GST-tag was expressed in E. coli OverExpress C41 in LB medium for 16 h at 18 °C after induction with 0.1 mM IPTG. Cells were harvested at 3500 × g for 15 minutes and lysed by sonication in buffer containing 20 mM HEPES pH 7.5, 300 mM NaCl, 10 %v/v glycerol, 5 mM DTT, 0.1 %v/v Triton X-100 and EDTA-free protease inhibitor cocktail (Sigma-Aldrich). The cleared lysate was purified by affinity chromatography on a GSTrap HF column (Cytiva) using an ÄKTA Start (Cytiva) in buffer containing 20 mM HEPES pH 7.5, 300 mM NaCl, 10 %v/v glycerol, 5 mM DTT. OSBP(377 -807) was eluted by using elution buffer containing 20 mM HEPES pH 7.5, 300 mM NaCl, 10 %v/v glycerol, 5 mM DTT and 10 mM reduced glutathione. Proteins were further purified by SEC on a HiLoad 16/600 Superdex 75 pg (Cytiva) using an ÄKTA Explorer (Cytiva) in buffer containing 20 mM HEPES pH 7.5, 150 mM NaCl, 10 %v/v glycerol and 2 mM DTT.
The ORP domains of human ORP1(534-950) in pET24b(+) and ORP2(49-480) in the pET24b(+) vector including an N-terminal His6-Tag were expressed in E. coli BL21(DE3) in TB medium for approximately 16 h at 18 °C after induction with 0.1 mM IPTG. Cells were collected at 3500 × g for 15 minutes and lysed by sonification in buffer containing 10 mM Tris-HCl pH 8, 300 mM NaCl, 5 % glycerol, 2 mM DTT, 0.1 % Triton X-100 and EDTA-free protease inhibitor cocktail (Sigma-Aldrich). The cleared […]

Row | SMILES | STARD1 (FP) inhibition (STARD1) [%] | OSBP (FP) inhibition (OSBP) [%] | inhibition at 10 µM (STARD1) [%] | inhibition at 10 µM (OSBP) [%]
1 | C[C@]12CC[C@@H](O)C[C@H]1CCc1c2[nH]c2ccc(F)cc12 [Compound 10d] | 90 | -7.0 |  | 
2 | Cc1ccc2[nH]c3c(c2c1)CC[C@@H]1C[C@H](O)CC[C@]31C [Compound 10e] |  |  | -3.33 | -1.3
3 | COc1ccc2[nH]c3c(c2c1)CC[C@@H]1C[C@H](O)CC[C@]31C [Compound 10f] |  |  | -1.67 | -6.7
4 | CC12CCC(O)CC1CCc1c2[nH]c2ccc(C(F)(F)F)cc12 (stereo not drawn) [Compound 10g] |  |  | -35 | -8
5 | C[C@]12CC[C@@H](O)C[C@H]1CCc1c2[nH]c2ccc(I)cc12 [Compound 10h] | 15 | 18.7 |  | 
6 | C[C@]12CC[C@@H](O)C[C@H]1CCc1c2[nH]c2c(F)cc(Cl)cc12 [Compound 10i] |  |  | -13 | -9.3
7 | Cc1cc(C)c2c3c([nH]c2c1)[C@@]1(C)CC[C@@H](O)C[C@H]1CC3 [Compound 10j] |  |  | 17 | -16
8 | CCOC(=O)c1ccc2[nH]c3c(c2c1)CC[C@@H]1C[C@H](O)CC[C@]31C [Compound 10k] | -12 | 2.0 |  | 
9 | C[C@]12CC[C@@H](O)C[C@H]1CCC(=O)c1ccccc1NC2=O [Compound 11a] | 7 | 2.7 |  | 
10 | C[C@]12CC[C@@H](O)C[C@H]1CCC(=O)c1cc(Br)ccc1NC2=O [Compound 11b] |  |  | 0 | 12
11 | Cc1ccc2c(c1)C(=O)CC[C@@H]1C[C@H](O)CC[C@]1(C)C(=O)N2 [Compound 11c] |  |  | 25 | 18.7
12 | COc1ccc2c(c1)C(=O)CC[C@@H]1C[C@H](O)CC[C@]1(C)C(=O)N2 [Compound 11d] |  |  | 5 | -5.3
13 | C[C@]12CC[C@@H](O)C[C@H]1CCC(=O)c1cc(C(F)(F)F)ccc1NC2=O [Compound 11e] |  |  | 10 | 15
14 | C[C@]12CC[C@@H](O)C[C@H]1CCC(=O)c1cc(Cl)cc(F)c1NC2=O [Compound 11f] | -3.33 | 9.0 |  | 
15 | Cc1cc(C)c2c(c1)NC(=O)[C@@]1(C)CC[C@@H](O)C[C@H]1CCC2=O [Compound 11g] |  |  | -8 | -5.3
16 | Cc1ccc2[nH]c3c(c(=O)c2c1)C[C@@H]1C[C@H](O)CC[C@]31C [Compound 12] |  |  | 5 | 2
17 | Cc1ccc2c(c1)[C@]1(O)CC[C@@H]3C[C@H](O)CC[C@]3(C)C1=N2 [Compound 14a] |  |  | 17 | 17.3

Row | SMILES | STARD1 (FP) inhibition (STARD1) [%] | OSBP (FP) inhibition (OSBP) [%] | inhibition at 10 µM (STARD1) [%] | inhibition at 10 µM (OSBP) [%]
18 | COc1ccc2c(c1)[C@]1(O)CC[C@@H]3C[C@H](O)CC[C@]3(C)C1=N2 [Compound 14b] |  |  | 10 | 9.3
19 | Cc1cc(C)c2c(c1)N=C1[C@@]2(O)CC[C@@H]2C[C@H](O)CC[C@]12C [Compound 14c] |  |  | 10 | 2.7
20 | C[C@]12CC[C@@H]3C[C@H]1CC[C@@]21C(=Nc2ccccc21)O3 [Compound 15a] |  |  | 18 | 0
21 | CC12CCC3CC1CCC21C(=Nc2ccc(Cl)cc21)O3 (stereo not drawn) [Compound 15c] |  |  | 20 | 3
22 | C[C@]12CC[C@@H]3C[C@H]1CC[C@@]21C(=Nc2ccc(F)cc21)O3 [Compound 15d] |  |  | 17 | 2.5
23 | Cc1ccc2c(c1)[C@@]13CC[C@@H]4C[C@@H](CC[C@@]41C)OC3=N2 [Compound 15e] |  |  | 45 | 5
24 | COc1ccc2c(c1)[C@@]13CC[C@@H]4C[C@@H](CC[C@@]41C)OC3=N2 [Compound 15f] |  |  | 15 | 10
25 | C[C@]12CC[C@@H]3C[C@H]1CC[C@@]21C(=Nc2ccc(C(F)(F)F)cc21)O3 [Compound 15g] |  |  | 25 | 16
26 | CC12CCC3CC1CCC21C(=Nc2c(Br)cc(C(F)(F)F)cc21)O3 (stereo not drawn) [Compound 15h] |  |  | 17 | 10
27 | C[C@]12CC[C@@H]3C[C@H]1CC[C@@]21C(=Nc2c(F)cc(Cl)cc21)O3 [Compound 15i] |  |  | 28 | 8.3
28 | CC12CCC3CC1CCC21C(=Nc2ccc(NCc4ccccc4)cc21)O3 (stereo not drawn) [Compound 19b] |  |  | 35 | 23
29 | CCCCCNc1ccc2c(c1)[C@@]13CC[C@@H]4C[C@@H](CC[C@@]41C)OC3=N2 [Compound 19c] |  |  | 28 | 18.6
30 | CCCCN(C)c1ccc2c(c1)[C@@]13CC[C@@H]4C[C@@H](CC[C@@]41C)OC3=N2 [Compound 19d] |  |  | 33 | 49
31 | CC(C)(C)OC(=O)N1CCN(c2ccc3c(c2)C24CCC5CC(CCC52C)OC4=N3)CC1 (stereo not drawn) [Compound 19e] |  |  | 25 | 17.2
32 | C[C@]12CC[C@@H]3C[C@H]1CC[C@@]21C(=Nc2ccc(N(Cc4ccccc4)c4ccc5c(c4)[C@@]46CC[C@@H]7C[C@@H](CC[C@@]74C)OC6=N5)cc21)O3 [Compound 20a] | -7 | 11.7 |  | 
33 | CCCCCN(c1ccc2c(c1)[C@@]13CC[C@@H]4C[C@@H](CC[C@@]41C)OC3=N2)c1ccc2c(c1)[C@@]13CC[C@@H]4C[C@@H](CC[C@@]41C)OC3=N2 [Compound 20b] | -18 | 34.5 |  | 
